In turn, `O=C(NCc1cccnc1)C(F)(F)F` showed a melting point of 102 to 104 °C.

`CCOC(=O)c1cn(-c2ccc(OC)cc2)cn1` displayed a melting point of 93 to 94 °C. `O=C(NCc1ccccn1)Nc1cc(N2C(=O)COc3ccccc32)ccn1` returned a melting point of 206 to 207 °C.

Molecule `CCOC(=O)C(=O)c1ccc2c(c1)CCCO2` gave a melting point of 119 to 121 °C. In turn, `CC1(C)CCC(C)(C)c2cc(C(O)C#Cc3ccc(C(=O)O)c(O)c3)ccc21` (configuration not stated) registered a melting point of 203 to 204 °C.

The molecule `O=C(O)c1cn(-c2cccnc2)nc1Br` displayed a melting point of 270 to 278 °C. The figure for `CCCc1c(COc2ccc(Cc3nnn(CCCC(=O)O)n3)cc2)ccc(C(C)=O)c1O` is 92 to 94 °C; for `COc1ccc(CC(=O)NC(NC(=NC#N)c2cccc3ncccc23)C(C)(C)C)cc1OC` (configuration not stated) it is 203 to 205 °C; for `CCC1C(=O)c2cc(OCC(=O)O)c(C)c(C)c2C1=O` (configuration not stated) it is 187 to 193 °C. For the molecule `CCNc1nc(-c2ccc(F)cc2C)c2ccc(=O)n(-c3ccccc3F)c2n1`, the melting point lay within 176 to 177 °C.

`CCOC(OCC)[C@@H]1CCCN1C(=O)[C@@H]1CCCN1C(=O)OCc1ccccc1` came in with a melting point of 58.5 to 61 °C. In turn, `CNC(=O)Oc1ccc(NC=O)c2c1CCCC2` showed a melting point of 165 to 166 °C. With `COc1ccccc1N1CCN(CCCCNc2cc(Cl)nnc2OC)CC1`, the melting point fell in the range of 139 to 150 °C. With `O=C(Nc1cccc(-c2c(-c3ccccc3C(F)(F)F)cnc3c(C(F)(F)F)cccc23)c1)Nc1ccccc1Cl` the figure was 230 to 232 °C. With `COCCOC(=O)C1=C(C)Nc2nccn2C1c1ccccc1C(F)(F)F` (configuration not stated) the figure was 181 to 182 °C; with `CNC(=O)Nc1ccc(Oc2ccc3sncc3c2)c(C(F)(F)F)c1`, 138 °C; with `CCOC(=O)C1=C(C)NC(C)=C(C(=O)OCCN2CCN(C(c3ccccc3)c3ccccc3)CC2)C1c1ccccc1Cl` (configuration not stated), 76 to 78 °C.

`CC(=O)N1CCC(O)(Cn2nc(-c3c(-c4ccccc4)nn4ccccc34)ccc2=O)CC1` displayed a melting point of 163 to 165 °C. With `O=C(O)CC1CCCc2c1n(Cc1ccc(F)cc1)c1c(F)cc(F)cc21` (configuration not stated) the figure was 195 to 196 °C; with `CCOC=Nc1c(SC(F)(F)F)c(C#N)nn1-c1c(Cl)cc(C(F)(F)F)cc1Cl`, 68 °C; with `CCC1c2cccn2-c2ccc(F)cc2N1S(=O)(=O)c1ccc(O)cc1` (configuration not stated), 150 to 152 °C. With `O=C(O)c1ccc(-c2coc(-c3cccc(C(F)(F)F)c3)n2)cc1` the figure was 268 to 269 °C. The figure for `CC(C)SC1NC(=O)C1NC(=O)COc1ccccc1` (configuration not stated) is 128 to 130 °C; for `CCCN1C(=O)C2(c3ccc(N)cc3)CC(c3ccc(N)cc3)(C2)C1=O` it is 149 to 150 °C; for `Cc1cc(Oc2ccc(C(F)(F)F)cc2Cl)cc(C)c1N` it is 104 to 105 °C.

`O=C(O)c1cccc(NC(=O)C(COC2CCCCO2)NS(=O)(=O)c2ccc(Cl)cc2)c1` (configuration not stated): the melting point lay within 84 to 124 °C. With `CC(C)Nc1cccnc1N1CCN(C(=O)c2ccc(C(=O)NCCN3CCCCC3)cc2)CC1` the figure was 106 to 107 °C. The figure for `Cn1ncc2c1-c1c(SC(C)(C)C)sc(C(N)=O)c1CC2` is 146 to 147 °C. The figure for `CC(C)(C)n1nc(Cc2ccncc2)c(C(N)=O)c1N` is 125 to 127 °C; for `C=CCn1c(=O)c2cc(C(=O)O)cn2c2ccccc21` it is 306 to 308 °C.

Consider `O=S(=O)(On1nnc2ccccc21)c1cccnc1`, for which the melting point was found to be 98 °C. With `CN1CCC(c2n[nH]c3cc(F)ccc23)CC1` the figure was 217 to 220 °C; with `O=C(NCc1ccccc1)C1Cc2cc(Br)cc3[nH]c(=O)c(=O)n1c23` (configuration not stated), 152 to 153 °C. With `Cc1c(Oc2ccc(C(=O)NC(C)C)cc2)c2cc(F)ccc2n1CC(=O)O` the figure was 218 to 219 °C. With `C#CCOc1ccc2c(Cl)nnc(C)c2c1` the figure was 178 to 180 °C. With `O=C(O)C(c1ccccc1)N1C(=O)c2cccc([N+](=O)[O-])c2C1=O` (configuration not stated), the melting point lay in the range of 213 to 229 °C. With `O=C1N(N2CCCCC2)c2ccccc2C1(O)Cc1ccncc1` (configuration not stated) the figure was 156 to 158 °C. The figure for `NC(=O)N1C(=O)C(C(=O)c2cc(Cl)cs2)c2cc(Cl)ccc21` (configuration not stated) is 212 to 214 °C; for `NC(=O)c1sc2ccc(OCc3ccccc3)cc2c1Cl` it is 206 °C. Molecule `Cc1c(-c2cc(C(F)(F)F)cc(C(F)(F)F)c2)ccc2nc(N=CN(C)C)nc(N=CN(C)C)c12` showed a melting point of 208 to 210 °C. With `C#CCn1nc(-c2ccc(S(C)(=O)=O)cc2)c(-c2ccc(F)cc2)c1C(F)(F)F` the figure was 158 to 160 °C; with `Cn1c([N+](=O)[O-])cnc1COc1ccc(S(C)(=O)=O)cc1`, 155 °C.

`c1cn(Cc2ccc3c(c2)-c2[nH]nc(-c4ccsc4)c2C3)nn1` had a melting point of 249 to 252 °C. The figure for `COc1ccc(C#N)c(C)n1` is 80 to 80.5 °C. The figure for `NC(=O)[C@@H]1[C@H](Nc2c(Br)cnc3[nH]c(-c4cccnc4N4CCOCC4)nc23)[C@H]2C=C[C@@H]1C2` is 150 °C.

Regarding `COC(=O)c1c(-c2ccc(C(F)(F)F)cc2)ccc2ccccc12`, the melting point was in the range of 74 to 76 °C. With `Cc1nn(C)c(N)c1C#N` the figure was 193 to 195 °C; with `Cc1ccc(OCC2CN(C(C)C)C(=O)O2)cn1` (configuration not stated), 86 to 88 °C; with `CCOC(=O)c1nnc(-c2cc3sc(C)c(N(C)S(=O)(=O)c4cccs4)c3[nH]2)s1`, 209 °C. The figure for `N#CC12CC(c3ccccc31)c1ccccc12` is 120 to 123 °C. With `CCOC(=O)c1cc(CC)sc1Nc1ccccc1[N+](=O)[O-]` the figure was 66 to 68 °C; with `O=C1c2ccccc2C(=O)N1CC(=O)N1c2ccccc2N(Cc2ccc(OCc3ccccc3)cc2)C(=O)[C@H]2CCC[C@H]21` (relative stereo), 179 to 181 °C; with `O=C(O)c1ccc2[nH]c3c(c2c1)CCCCCC3`, 240 to 241 °C. In turn, `CC(=O)Nc1ccc(NC(=O)c2ccc(-c3[nH]nc4c3C(=O)c3c(NC(=O)NN5CCOCC5)cccc3-4)s2)cc1` returned a melting point of 253 to 254 °C.

Consider `Cc1nc(-c2cn(-c3cc(C(F)(F)F)cc(-c4ccc(C(F)(F)F)cc4)n3)cn2)sc1S(=O)(=O)NC(C)(C)C`, for which the melting point was more than 250 °C. As for `CCn1nc(C(=O)NC2CN(C)CCN(C(=O)c3ccccc3)C2)c2ccccc21` (configuration not stated), the melting point lay in the range of 100 to 103 °C. `CC(=O)NCC=C1CCc2ccc3nc(C)sc3c21` gave a melting point of 184 to 186 °C. The figure for `COc1c(N2CCCC2)c(F)cc2c(=O)c(C(=O)O)cn(C3CC3)c12` is 257 to 258 °C.

Molecule `Cc1nn(C)c2c1N=C(c1ccc(-n3c(C)nc4cnccc43)cc1)C(C)C(=O)N2C` (configuration not stated) registered a melting point of 222 to 225 °C. With `CCC(CC)Oc1nc(C)nc(Nc2c(C)cc(C)cc2C)c1C(=O)O` the figure was 118 to 120 °C; with `CC(C)Oc1ncnc2c(O)ccc(Cl)c12`, 126 °C.

Molecule `Cc1c(-c2ccccc2)nc(C(C)C)c(CO)c1-c1ccc(F)cc1` came in with a melting point of 182 to 184 °C. Molecule `Nc1nc(-c2ccccc2)nc2c1=NCC(=O)N=2` registered a melting point of 330 to 332 °C.

`O=C1Nc2ccccc2CCC1Cl` (configuration not stated) displayed a melting point of 163 to 167 °C.

Regarding `CCCn1c(=O)c(-c2ccccc2)c2n(c1=O)CCC(Sc1ccccc1)S2` (configuration not stated), the melting point lay in the range of 126 to 127 °C.

In the case of `COCCNC(=O)C(NC(=O)OCc1ccccc1)c1ccc2c(c1)CCO2` (configuration not stated), the melting point lay within 90 to 110 °C.

On to `Oc1cc(Br)c(Br)cc1O`, for which the melting point is 110 to 111 °C. With `CCCOc1ccc(F)c2c(=O)c(-c3ccc(OC)cc3)cn(CC(=O)NC3CCNCC3)c12` the figure was 226 to 228 °C; with `CCCCCCCC[C@H](N[C@@H](C)C(=O)N1C(=O)N(C)C[C@H]1C(=O)O)C(=O)OCC`, 85 to 86 °C.

`COc1nc(-n2ncc(C#N)c2N)c(Cl)cc1C(F)(F)F` yielded a melting point of 135 to 139 °C. The figure for `Cc1c(Br)c(C#N)nn1C` is 92 to 94 °C; for `CN1CCN(c2ccc(Nc3ncc4c(n3)SC(=Cc3ccc(OCc5ccccc5)cc3)C(=O)N4)cc2)CC1` it is 238 to 240 °C; for `O=C1CCCN1c1cccc(C(F)(F)F)c1` it is 65 to 66 °C.

On to `COc1c(-c2ccc(S(C)(=O)=O)cc2)cnn(-c2cccc(Cl)c2)c1=O`, for which the melting point is 112 to 114 °C.

The molecule `O=C1c2ccccc2N(Cc2cccs2)C2=NCCN12` gave a melting point of 124 to 127 °C. The figure for `CCCCCNC(=O)c1cc(N2CCN(C(=O)c3ccccc3C(F)(F)F)CC2)nn1C(=O)OCc1ccccc1` is 58 to 61 °C.

The molecule `CCOC(=O)C(C(=O)OCC)[C@H](C[N+](=O)[O-])c1ccccc1` gave a melting point of 45 to 47 °C.

`CCCS(=O)c1cccc(-c2nc(=O)c3ccccc3s2)n1` (configuration not stated) came in with a melting point of 175 °C. With `Cn1cc(C(O)CO)c2c3c(c(-c4ccccc4Cl)cc21)C(=O)NC3=O` (configuration not stated) the figure was 179 to 183 °C. The figure for `CC(C)(C)NC(=O)Nc1ccc(-c2c[nH]c(=O)cn2)cc1` is more than 300 °C; for `CCc1nn(C(=O)NS(=O)(=O)c2c(C)cccc2Cl)c(=O)n1C` it is 176 °C; for `CCOC(=O)[C@H](CCc1ccccc1)N[C@@H](Cc1ccccc1)C(=O)NCCc1scnc1C(=O)O` it is 121 to 124 °C.

Turning to `CSc1cnc2cc(-c3ccccc3Cl)sc2c1O`, the melting point fell in the range of 270 to 273 °C. `N#CCCSC1C2=C(CCCC2)C(=O)N1c1ccc(Cl)cc1F` (configuration not stated) yielded a melting point of 101 to 103 °C. As to `COc1ccc(S(=O)(=O)C2(C(=O)O)CCCN(Cc3ccccc3)C2)cc1` (configuration not stated), the melting point amounted to 133 °C. With `CC(Oc1ccc(-c2cccc(S(=O)(=O)NCC(F)(F)F)c2)cc1)C(O)CCc1cccnc1` (configuration not stated) the figure was 47 to 48 °C. The figure for `CCCOC(Nc1ccccc1)(OCCC)c1ccnc(C(=O)c2ccc(C)cc2)c1` is 120 to 121 °C.

As usually defined, the melting point is the temperature of the solid-liquid transition.

The values above are taken from a melting point compilation (Tetko et al.; mined from patent text by program, amines drawn as free bases though some values may be those of a salt).
